In article PMC5218480 (PLoS ONE, 2017):

System: MV-4-11 cells
Assay: Gene expression microarray analysis (Affymetrix PrimeView) and GSEA
Assay type: cell-based, human
Set-up: RFU PODN (11730768_x_at) / Fold change /veh PODN (11730768_x_at) / RFU LINC00158 (11744669_a_at) / Fold change /veh LINC00158 (11744669_a_at) / RFU DUSP10 (11751237_a_at) / Fold change /veh DUSP10 (11751237_a_at) / RFU ID3 (11757404_x_at) / Fold change /veh ID3 (11757404_x_at) / RFU PLEKHG5 (11737974_s_at) / Fold change /veh PLEKHG5 (11737974_s_at) / RFU LRRC4B (11730491_at) / Fold change /veh LRRC4B (11730491_at) / RFU GIMAP4 (11747438_a_at) / Fold change /veh GIMAP4 (11747438_a_at) / RFU KRT8 (11758183_x_at) / Fold change /veh KRT8 (11758183_x_at) / RFU CNN1 (11734310_a_at) / Fold change /veh CNN1 (11734310_a_at) / RFU VPS37D (11726825_at) / Fold change /veh VPS37D (11726825_at) / RFU C10orf10 (11716522_x_at) / Fold change /veh C10orf10 (11716522_x_at) / RFU KIR2DL2 /// KIR2DL4 /// KIR2DL5A /// KIR2DL5B /// KIR2DS1 /// KIR2DS2 /// KIR2DS3 /// KIR2DS4 /// KIR3DL3 /// KIR3DL3 /// KIR3DS1 (11738374_at) / Fold change /veh KIR2DL2 /// KIR2DL4 /// KIR2DL5A /// KIR2DL5B /// KIR2DS1 /// KIR2DS2 /// KIR2DS3 /// KIR2DS4 /// KIR3DL3 /// KIR3DL3 /// KIR3DS1 (11738374_at) / RFU C1QL1 (11718748_at) / Fold change /veh C1QL1 (11718748_at) / RFU TMPRSS4 (11747572_a_at) / Fold change /veh TMPRSS4 (11747572_a_at) / RFU HAMP (11756126_x_at) / Fold change /veh HAMP (11756126_x_at) / RFU RNFT2 (11725882_a_at) / Fold change /veh RNFT2 (11725882_a_at) / RFU NR4A2 (11747474_a_at) / Fold change /veh NR4A2 (11747474_a_at) / RFU ABCC12 (11746883_a_at) / Fold change /veh ABCC12 (11746883_a_at) / RFU TMEM136 (11760407_x_at) / Fold change /veh TMEM136 (11760407_x_at) / RFU CLDN22 /// WWC2 (11732394_at) / Fold change /veh CLDN22 /// WWC2 (11732394_at) / RFU HLA-DPB1 (11760878_x_at) / Fold change /veh HLA-DPB1 (11760878_x_at) / RFU SPINT1 (11716480_a_at) / Fold change /veh SPINT1 (11716480_a_at) / RFU GAP43 (11754022_s_at) / Fold change /veh GAP43 (11754022_s_at) / RFU A4GNT (11735810_at) / Fold change /veh A4GNT (11735810_at) / RFU PRB3 (11715151_x_at) / Fold change /veh PRB3 (11715151_x_at) / RFU TUBB4B (11761932_at) / Fold change /veh TUBB4B (11761932_at) / RFU CAPN14 (11732068_a_at) / Fold change /veh CAPN14 (11732068_a_at) / RFU TMCC2 (11721928_a_at) / Fold change /veh TMCC2 (11721928_a_at) / RFU IRGQ (11745062_a_at) / Fold change /veh IRGQ (11745062_a_at) / RFU FAM174B (11720279_a_at) / Fold change /veh FAM174B (11720279_a_at) / RFU TMPRSS4 (11748680_a_at) / Fold change /veh TMPRSS4 (11748680_a_at) / RFU FAM212B (11763350_a_at) / Fold change /veh FAM212B (11763350_a_at) / RFU PLEKHG5 (11743358_a_at) / Fold change /veh PLEKHG5 (11743358_a_at) / RFU ZSCAN30 (11745921_a_at) / Fold change /veh ZSCAN30 (11745921_a_at) / RFU CMKLR1 (11741424_a_at) / Fold change /veh CMKLR1 (11741424_a_at) / RFU LOC101060620 /// MAPK8IP1 (11723275_at) / Fold change /veh LOC101060620 /// MAPK8IP1 (11723275_at) / RFU SPTSSB (11747773_x_at) / Fold change /veh SPTSSB (11747773_x_at) / RFU PRSS12 (11739890_at) / Fold change /veh PRSS12 (11739890_at) / RFU BIN1 (11741810_x_at) / Fold change /veh BIN1 (11741810_x_at) / RFU WNT11 (11732464_a_at) / Fold change /veh WNT11 (11732464_a_at) / RFU C10orf10 (11716521_a_at) / Fold change /veh C10orf10 (11716521_a_at) / RFU C5orf56 (11738089_at) / Fold change /veh C5orf56 (11738089_at) / RFU CYB561 (11721691_x_at) / Fold change /veh CYB561 (11721691_x_at) / RFU ANKRD19P (11752326_a_at) / Fold change /veh ANKRD19P (11752326_a_at) / RFU OR2T12 /// OR2T33 /// OR2T8 (11738714_s_at) / Fold change /veh OR2T12 /// OR2T33 /// OR2T8 (11738714_s_at) / RFU VCAN (11748164_a_at) / Fold change /veh VCAN (11748164_a_at) / RFU JSRP1 (11732532_at) / Fold change /veh JSRP1 (11732532_at) / RFU KRTAP10-11 (11738290_x_at) / Fold change /veh KRTAP10-11 (11738290_x_at) / RFU MYO3A (11730013_a_at) / Fold change /veh MYO3A (11730013_a_at) / RFU EBF3 (11725865_a_at) / Fold change /veh EBF3 (11725865_a_at) / RFU CAMK2N1 (11719241_x_at) / Fold change /veh CAMK2N1 (11719241_x_at) / RFU C5orf56 (11738088_a_at) / Fold change /veh C5orf56 (11738088_a_at) / RFU OLFML3 (11715873_a_at) / Fold change /veh OLFML3 (11715873_a_at) / RFU LOC100653217 /// NTM (11731650_a_at) / Fold change /veh LOC100653217 /// NTM (11731650_a_at) / RFU MAPK11 (11762145_a_at) / Fold change /veh MAPK11 (11762145_a_at) / RFU FIZ1 (11724087_x_at) / Fold change /veh FIZ1 (11724087_x_at) / RFU OASL (11726364_x_at) / Fold change /veh OASL (11726364_x_at) / RFU SOX15 (11748057_x_at) / Fold change /veh SOX15 (11748057_x_at) / RFU CD79A (11719716_a_at) / Fold change /veh CD79A (11719716_a_at) / RFU HIST1H1D (11736915_at) / Fold change /veh HIST1H1D (11736915_at) / RFU CASKIN2 (11723855_a_at) / Fold change /veh CASKIN2 (11723855_a_at) / RFU LOC730098 (11760151_x_at) / Fold change /veh LOC730098 (11760151_x_at) / RFU OR4N2 (11742367_at) / Fold change /veh OR4N2 (11742367_at) / RFU PRRT2 (11749266_a_at) / Fold change /veh PRRT2 (11749266_a_at) / RFU SNX32 (11753110_a_at) / Fold change /veh SNX32 (11753110_a_at) / RFU CDHR5 (11726645_a_at) / Fold change /veh CDHR5 (11726645_a_at) / RFU RCAN1 (11760418_a_at) / Fold change /veh RCAN1 (11760418_a_at) / RFU FAM167A (11723789_a_at) / Fold change /veh FAM167A (11723789_a_at) / RFU FAM26E (11764081_at) / Fold change /veh FAM26E (11764081_at) / RFU ISYNA1 (11749810_s_at) / Fold change /veh ISYNA1 (11749810_s_at) / RFU ACY1 (11761880_at) / Fold change /veh ACY1 (11761880_at) / RFU 11764098_at / Fold change /veh 11764098_at / RFU SAMD14 (11745864_x_at) / Fold change /veh SAMD14 (11745864_x_at) / RFU NPB (11741838_a_at) / Fold change /veh NPB (11741838_a_at) / RFU TMPRSS6 (11731388_a_at) / Fold change /veh TMPRSS6 (11731388_a_at) / RFU KRTAP10-2 (11738614_at) / Fold change /veh KRTAP10-2 (11738614_at) / RFU ARHGAP8 /// PRR5-ARHGAP8 (11727945_x_at) / Fold change /veh ARHGAP8 /// PRR5-ARHGAP8 (11727945_x_at) / RFU KRTAP5-7 /// NADSYN1 (11734609_at) / Fold change /veh KRTAP5-7 /// NADSYN1 (11734609_at) / RFU RASL12 (11751679_a_at) / Fold change /veh RASL12 (11751679_a_at) / RFU CDKN2B (11736163_a_at) / Fold change /veh CDKN2B (11736163_a_at) / RFU PRF1 (11729649_at) / Fold change /veh PRF1 (11729649_at) / RFU, ZNF638 /// ZNF638-IT1 / Fold change vs veh, ZNF638 /// ZNF638-IT1 / RFU, PANK3 / Fold change vs veh, PANK3 / RFU, SH3YL1 / Fold change vs veh, SH3YL1 / RFU, ZEB2 / Fold change vs veh, ZEB2 / RFU, NRIP1 / Fold change vs veh, NRIP1 / RFU, PTTG1IP / Fold change vs veh, PTTG1IP / RFU, CAPN2 / Fold change vs veh, CAPN2 / RFU, MED14 / Fold change vs veh, MED14 / RFU, SNORA58 / Fold change vs veh, SNORA58 / RFU, C1orf63 / Fold change vs veh, C1orf63 / RFU, LRRFIP1 / Fold change vs veh, LRRFIP1 / RFU, NDUFAF7 / Fold change vs veh, NDUFAF7 / RFU, SLC12A2 / Fold change vs veh, SLC12A2 / RFU, IBTK / Fold change vs veh, IBTK / RFU, ESF1 / Fold change vs veh, ESF1 / Fold change vs veh, TMEM50B / RFU, TAOK1 / Fold change vs veh, TAOK1 / RFU, ACBD3 / Fold change vs veh, ACBD3 / RFU, TMA16 / Fold change vs veh, TMA16 / RFU, RWDD3 / Fold change vs veh, RWDD3 / RFU, BCAT1 / Fold change vs veh, BCAT1 / RFU, EDEM3 / Fold change vs veh, EDEM3 / RFU, TMEM33 / Fold change vs veh, TMEM33 / RFU, WDR75 / Fold change vs veh, WDR75 / RFU, AHCTF1 / Fold change vs veh, AHCTF1 / RFU, TFRC / Fold change vs veh, TFRC / RFU, ZDHHC17 / Fold change vs veh, ZDHHC17 / RFU, NOM1 / Fold change vs veh, NOM1 / RFU, ARL8B / Fold change vs veh, ARL8B / RFU, ZBTB11 / Fold change vs veh, ZBTB11 / RFU, TAMM41 / Fold change vs veh, TAMM41 / RFU, KIAA1704 /// LOC100996395 / Fold change vs veh, KIAA1704 /// LOC100996395 / RFU, ING1 / Fold change vs veh, ING1 / RFU, TRMT61B / Fold change vs veh, TRMT61B / RFU, FUBP3 / Fold change vs veh, FUBP3 / RFU, TP53 / Fold change vs veh, TP53 / RFU, TNKS2 / Fold change vs veh, TNKS2 / RFU, ZFP14 / Fold change vs veh, ZFP14 / RFU, ACTR2 / Fold change vs veh, ACTR2 / RFU, PPP3R1 / Fold change vs veh, PPP3R1 / RFU, PIK3R1 / Fold change vs veh, PIK3R1 / RFU, HNRNPA1 / Fold change vs veh, HNRNPA1 / RFU, RNF170 / Fold change vs veh, RNF170 / RFU, ZNF28 / Fold change vs veh, ZNF28 / RFU, RNGTT / Fold change vs veh, RNGTT / RFU, OGT / Fold change vs veh, OGT / RFU, BRD1 / Fold change vs veh, BRD1 / RFU, MARS / Fold change vs veh, MARS / RFU, ZNF655 / Fold change vs veh, ZNF655 / RFU, FAHD1 / Fold change vs veh, FAHD1 / RFU, BDP1 / Fold change vs veh, BDP1 / RFU, LRRCC1 / Fold change vs veh, LRRCC1 / RFU, ARID1A / Fold change vs veh, ARID1A / RFU, ZNF146 / Fold change vs veh, ZNF146 / RFU, ZNF330 / Fold change vs veh, ZNF330 / RFU, GPN3 / Fold change vs veh, GPN3 / RFU, C9orf123 / Fold change vs veh, C9orf123 / RFU, N4BP2L2 / Fold change vs veh, N4BP2L2 / RFU, ARFIP1 / Fold change vs veh, ARFIP1 / RFU, FAM179B / Fold change vs veh, FAM179B / RFU, BCL10 / Fold change vs veh, BCL10 / RFU, UHRF1BP1L / Fold change vs veh, UHRF1BP1L / RFU, BET1 / Fold change vs veh, BET1 / RFU, CNOT2 / Fold change vs veh, CNOT2 / RFU, ZNF268 / Fold change vs veh, ZNF268 / Fold change vs veh, ZNF507 / RFU, DGCR2 / Fold change vs veh, DGCR2 / RFU, WDSUB1 / Fold change vs veh, WDSUB1 / Fold change vs veh, HSP90B1 /// MIR3652 / RFU, ADSS / Fold change vs veh, ADSS / RFU, GK / Fold change vs veh, GK / RFU, ZNF148 / Fold change vs veh, ZNF148 / RFU, TAF9 / Fold change vs veh, TAF9 / RFU, SLC1A5 / Fold change vs veh, SLC1A5 / RFU, SLMO2 / Fold change vs veh, SLMO2 / RFU, ABCC4 / Fold change vs veh, ABCC4 / RFU, LOC101060439 /// RAP1B / Fold change vs veh, LOC101060439 /// RAP1B / RFU, RFX7 / Fold change vs veh, RFX7 / RFU, GTPBP10 / Fold change vs veh, GTPBP10 / RFU, CNEP1R1 / Fold change vs veh, CNEP1R1 / RFU, BIVM-ERCC5 /// ERCC5 / Fold change vs veh, BIVM-ERCC5 /// ERCC5 / RFU, ILF3 / Fold change vs veh, ILF3 / RFU 11762660_at / Fold change /veh 11762660_at / RFU VCAN (11757783_s_at) / Fold change /veh VCAN (11757783_s_at) / RFU DDX43 (11728927_at) / Fold change /veh DDX43 (11728927_at) / RFU KRT8 (11758188_x_at) / Fold change /veh KRT8 (11758188_x_at) / RFU NKD1 (11759106_at) / Fold change /veh NKD1 (11759106_at) / RFU SRD5A1 (11742802_a_at) / Fold change /veh SRD5A1 (11742802_a_at) / RFU TPSAB1 /// TPSB2 (11721975_s_at) / Fold change /veh TPSAB1 /// TPSB2 (11721975_s_at) / RFU GSTM3 (11746129_a_at) / Fold change /veh GSTM3 (11746129_a_at) / RFU IL23R (11737362_x_at) / Fold change /veh IL23R (11737362_x_at) / RFU TMEM51 (11727254_a_at) / Fold change /veh TMEM51 (11727254_a_at) / RFU PIWIL2 (11732686_x_at) / Fold change /veh PIWIL2 (11732686_x_at) / RFU ORM1 (11744905_x_at) / Fold change /veh ORM1 (11744905_x_at) / RFU CCDC152 (11743942_at) / Fold change /veh CCDC152 (11743942_at) / RFU ECM1 (11717891_a_at) / Fold change /veh ECM1 (11717891_a_at) / RFU IL23R (11748794_a_at) / Fold change /veh IL23R (11748794_a_at) / RFU TNFAIP8L3 (11732012_x_at) / Fold change /veh TNFAIP8L3 (11732012_x_at) / RFU MBOAT4 (11741988_at) / Fold change /veh MBOAT4 (11741988_at) / RFU 11764193_at / Fold change /veh 11764193_at / RFU TMEM53 (11763286_at) / Fold change /veh TMEM53 (11763286_at) / RFU MAGEB2 (11727129_at) / Fold change /veh MAGEB2 (11727129_at) / RFU TMEM200A (11744735_a_at) / Fold change /veh TMEM200A (11744735_a_at) / RFU CCDC152 (11751479_a_at) / Fold change /veh CCDC152 (11751479_a_at) / RFU FAM211A (11726209_a_at) / Fold change /veh FAM211A (11726209_a_at) / RFU RGS16 (11746705_a_at) / Fold change /veh RGS16 (11746705_a_at) / RFU VCAN (11755009_s_at) / Fold change /veh VCAN (11755009_s_at) / RFU RHOB (11743442_s_at) / Fold change /veh RHOB (11743442_s_at) / RFU RGS16 (11720943_a_at) / Fold change /veh RGS16 (11720943_a_at) / RFU RGS16 (11720944_at) / Fold change /veh RGS16 (11720944_at) / RFU, VPS4B / Fold change vs veh, VPS4B / RFU, CREB1 / Fold change vs veh, CREB1 / RFU, DNAJC13 / Fold change vs veh, DNAJC13 / RFU, GNAQ / Fold change vs veh, GNAQ / RFU, CDK5R1 / Fold change vs veh, CDK5R1 / RFU, ZRANB3 / Fold change vs veh, ZRANB3 / RFU, CUL4A / Fold change vs veh, CUL4A / RFU, CCNY / Fold change vs veh, CCNY / RFU, UFL1 / Fold change vs veh, UFL1 / RFU, COG3 / Fold change vs veh, COG3 / RFU, DIAPH2 / Fold change vs veh, DIAPH2 / RFU, SKA2 / Fold change vs veh, SKA2 / RFU, AFF3 / Fold change vs veh, AFF3 / RFU, LMF1 / Fold change vs veh, LMF1 / RFU, IPO11 / Fold change vs veh, IPO11 / RFU, DFFB / Fold change vs veh, DFFB / RFU, FOXP1 / Fold change vs veh, FOXP1 / RFU, CARD8 / Fold change vs veh, CARD8 / RFU, STRN3 / Fold change vs veh, STRN3 / RFU, ADK / Fold change vs veh, ADK / RFU, RASSF2 / Fold change vs veh, RASSF2 / RFU, WIPF1 / Fold change vs veh, WIPF1 / RFU, LARP1B / Fold change vs veh, LARP1B / RFU, RASA1 / Fold change vs veh, RASA1 / RFU, RB1 / Fold change vs veh, RB1 / RFU, PPFIA1 / Fold change vs veh, PPFIA1 / RFU, MAT2A / Fold change vs veh, MAT2A / RFU, CCT5 / Fold change vs veh, CCT5 / RFU, WDR92 / Fold change vs veh, WDR92 / RFU, CUX1 / Fold change vs veh, CUX1 / RFU, TTC7A / Fold change vs veh, TTC7A / RFU, TMEM135 / Fold change vs veh, TMEM135 / RFU, DEPTOR / Fold change vs veh, DEPTOR / RFU, CPM / Fold change vs veh, CPM / RFU, DNAJB6 / Fold change vs veh, DNAJB6 / RFU, CACNA2D3 / Fold change vs veh, CACNA2D3 / RFU, DTX4 / Fold change vs veh, DTX4 / RFU, TFCP2 / Fold change vs veh, TFCP2 / RFU, GMCL1 /// GMCL1P1 / Fold change vs veh, GMCL1 /// GMCL1P1 / RFU, AEBP2 / Fold change vs veh, AEBP2 / RFU, SNHG1 /// SNORD22 /// SNORD25 /// SNORD26 /// SNORD27 /// SNORD28 /// SNORD29 /// SNORD31 / Fold change vs veh, SNHG1 /// SNORD22 /// SNORD25 /// SNORD26 /// SNORD27 /// SNORD28 /// SNORD29 /// SNORD31 / Fold change (Aza/veh), C12orf56 (ProbeSet 11735607_a_at) / Fold change (ACY-1035/veh), C12orf56 (ProbeSet 11735607_a_at) / Fold change (Aza/veh), FGFR1OP (ProbeSet 11751329_s_at) / Fold change (ACY-1035/veh), FGFR1OP (ProbeSet 11751329_s_at) / Fold change (Aza/veh), VPS36 (ProbeSet 11739960_a_at) / Fold change (ACY-1035/veh), VPS36 (ProbeSet 11739960_a_at) / RFU SYPL1 (11715823_x_at) / Fold change /veh SYPL1 (11715823_x_at) / RFU IGFBP7 (11715501_s_at) / Fold change /veh IGFBP7 (11715501_s_at) / RFU REEP3 (11722064_at) / Fold change /veh REEP3 (11722064_at) / RFU IGLL1 (11728026_x_at) / Fold change /veh IGLL1 (11728026_x_at): dose or concentration left out as unconfirmed
Settings: ProbeSet 11724526_at; LIST B

SMILES: Nc1ccc(-c2cccs2)cc1NC(=O)c1ccc2c(c1)cc(C1CC1)n2CCN1CCOCC1 [ACY-1035]
- Fold change vs veh, FAHD1: 1.05
